Values after ≈ are worked out from the molar mass of the structure shown. Bounds are passed on as bounds.

One assay concerns S.lutea UC-130. Put plainly: Dipped disc agar diffusion assay, S. lutea. Conditions: 1 mg./ml.; 12.7 mm paper disc; 16 hours.
On to 9-O--3-Furoyl- [U-61,461], for which the “Agar Diffusion 1 mg./ml. S.lutea UC-130 (inhibition zone)” value is 41.

Still in this assay, the particulars now being: Micrococcus luteus, UC130, 16 h, read-out: Agar Diffusion 1 mg./ml. S.lutea UC-130 (inhibition zone).
On to `COC1CC2C=CC3C4OC2(C(C)=CC(C)C(C(C)O)OC1=O)C3C(O)C(C)C4OC(=O)c1ccc[nH]1` (stereo not shown) [U-59,760, 9-O-pyrrole-2-carbonyl ester of nodusmicin, reference compound], for which the zone of inhibition at 1000 µg/mL was found to be 44 mm.
On the same count and under the same terms, in the case of `COC1CC2C=CC3C4OC2(C(C)=CC(C)C(C(C)O)OC1=O)C3C(OC(=O)c1ccco1)C(C)C4O` (stereo not shown) [U-60,905, 11-O--Furoyl-] it was 17 mm; in that of `COC1CC2C=CC3C4OC2(C(C)=CC(C)C(C(C)O)OC1=O)C3C(O)C(C)C4OC(=O)c1cccnc1` (stereo not shown) [U-60,906, 9-O--Nicotinoyl-], 32 mm; in that of `COC1CC2C=CC3C4OC2(C(C)=CC(C)C(C(C)O)OC1=O)C3C(O)C(C)C4OC(=O)c1ccccn1` (stereo not shown) [U-60,909, 9-O--Picolinoyl-], 31 mm.

A further assay deals with S.aureus UC 80. Put plainly: Dipped disc agar diffusion assay, S. aureus. The following applies: 1 mg./ml.; 12.7 mm paper disc; 16 hours.
Regarding 9-O--3-Furoyl- [U-61,461], the “Agar Diffusion 1 mg./ml. S.aureus UC 80 (inhibition zone)” value is given as 35.
With `COC1CC2C=CC3C4OC2(C(C)=CC(C)C(C(C)O)OC1=O)C3C(O)C(C)C4OC(=O)c1ccc[nH]1` (stereo not shown) [U-59,760, 9-O-pyrrole-2-carbonyl ester of nodusmicin, reference compound], the “Agar Diffusion 1 mg./ml. S.aureus UC 80 (inhibition zone)” value was 38.

The assay is the same for the next values; noted with them: Staphylococcus aureus, UC80, 16 h, read-out: Agar Diffusion 1 mg./ml. S.aureus UC 80 (inhibition zone), 1 mg./ml.; 12.7 mm paper disc; 16 hours.
Take `COC1CC2C=CC3C4OC2(C(C)=CC(C)C(C(C)O)OC1=O)C3C(O)C(C)C4OC(=O)c1ccc[nH]1` (stereo not shown) [U-59,760, 9-O-pyrrole-2-carbonyl ester of nodusmicin, reference compound]: the zone of inhibition at 1000 µg/mL is 37 mm.

Another assay deals with S.aureus UC-76. Put plainly: Minimum Inhibitory Concentration, microplate broth-dilution, S. aureus UC-76. The following applies: BHI broth; sensitive strain.
In the case of 9-O--3-Furoyl- [U-61,461], the “MIC S.aureus UC-76” value worked out at 0.50 µg/mL.
With `COC1CC2C=CC3C4OC2(C(C)=CC(C)C(C(C)O)OC1=O)C3C(O)C(C)C4OC(=O)c1ccc[nH]1` (stereo not shown) [U-59,760, 9-O-pyrrole-2-carbonyl ester of nodusmicin, reference compound], the “MIC S.aureus UC-76” value worked out at 0.125 µg/mL (≈ 0.242 µM).

The same assay, now with this note: Staphylococcus aureus, UC76, read-out: MIC S.aureus UC-76.
Consider `COC1CC2C=CC3C4OC2(C(C)=CC(C)C(C(C)O)OC1=O)C3C(OC(=O)c1ccco1)C(C)C4O` (stereo not shown) [U-60,905, 11-O--Furoyl-], for which the MIC was 500 µg/mL (≈ 968 µM).
On the same count and under the same terms, in the case of `COC1CC2C=CC3C4OC2(C(C)=CC(C)C(C(C)O)OC1=O)C3C(O)C(C)C4OC(=O)c1cccnc1` (stereo not shown) [U-60,906, 9-O--Nicotinoyl-] it was 250 µg/mL (≈ 474 µM); in that of `COC1CC2C=CC3C4OC2(C(C)=CC(C)C(C(C)O)OC1=O)C3C(O)C(C)C4OC(=O)c1ccccn1` (stereo not shown) [U-60,909, 9-O--Picolinoyl-], over 250 µg/mL.

The same assay, now with this note: Staphylococcus aureus, UC76, read-out: MIC S.aureus UC-76, BHI broth; sensitive strain.
`COC1CC2C=CC3C4OC2(C(C)=CC(C)C(C(C)O)OC1=O)C3C(O)C(C)C4OC(=O)c1ccc[nH]1` (stereo not shown) [U-59,760, 9-O-pyrrole-2-carbonyl ester of nodusmicin, reference compound]: the minimal inhibitory concentration (MIC) came out at 0.0625 µg/mL (≈ 0.121 µM).

The test system of a further assay is S.aureus UC-570. Put plainly: Minimum Inhibitory Concentration, microplate broth-dilution, S. aureus UC-570. Conditions: BHI broth; sensitive strain.
Consider 9-O--3-Furoyl- [U-61,461], for which the “MIC S.aureus UC-570” value came to 0.25 µg/mL.

Still in this assay, the particulars now being: Staphylococcus aureus, UC570, read-out: MIC S.aureus UC-570.
`COC1CC2C=CC3C4OC2(C(C)=CC(C)C(C(C)O)OC1=O)C3C(OC(=O)c1ccco1)C(C)C4O` (stereo not shown) [U-60,905, 11-O--Furoyl-]: the MIC was found to be 500 µg/mL (≈ 968 µM).
Turning to `COC1CC2C=CC3C4OC2(C(C)=CC(C)C(C(C)O)OC1=O)C3C(O)C(C)C4OC(=O)c1cccnc1` (stereo not shown) [U-60,906, 9-O--Nicotinoyl-], the MIC is 250 µg/mL (≈ 474 µM).
The same measure, in the same setting: then `COC1CC2C=CC3C4OC2(C(C)=CC(C)C(C(C)O)OC1=O)C3C(O)C(C)C4OC(=O)c1ccccn1` (stereo not shown) [U-60,909, 9-O--Picolinoyl-], with over 250 µg/mL.

The test system of another assay is S.aureus UC-746. Put plainly: Minimum Inhibitory Concentration, microplate broth-dilution, S. aureus UC-746. The following applies: BHI broth; strain resistant to tetracycline.
Turning to 9-O--3-Furoyl- [U-61,461], the “MIC S.aureus UC-746” value worked out at 0.50 µg/mL.

The same assay, now with this note: Staphylococcus aureus, UC746, read-out: MIC S.aureus UC-746.
With `COC1CC2C=CC3C4OC2(C(C)=CC(C)C(C(C)O)OC1=O)C3C(OC(=O)c1ccco1)C(C)C4O` (stereo not shown) [U-60,905, 11-O--Furoyl-], the MIC is 500 µg/mL (≈ 968 µM).
Still for that read-out and setting: then `COC1CC2C=CC3C4OC2(C(C)=CC(C)C(C(C)O)OC1=O)C3C(O)C(C)C4OC(=O)c1cccnc1` (stereo not shown) [U-60,906, 9-O--Nicotinoyl-], with 250 µg/mL (≈ 474 µM); and `COC1CC2C=CC3C4OC2(C(C)=CC(C)C(C(C)O)OC1=O)C3C(O)C(C)C4OC(=O)c1ccccn1` (stereo not shown) [U-60,909, 9-O--Picolinoyl-], with over 250 µg/mL.

The next assay has as its system S.pyrogenes UC-152. Put plainly: Minimum Inhibitory Concentration, microplate broth-dilution, S. pyrogenes UC-152. Conditions: BHI broth.
9-O--3-Furoyl- [U-61,461]: the “MIC S.pyrogenes UC-152” value worked out at 2.50 µg/mL.
On the same count and under the same terms, then `COC1CC2C=CC3C4OC2(C(C)=CC(C)C(C(C)O)OC1=O)C3C(O)C(C)C4OC(=O)c1ccc[nH]1` (stereo not shown) [U-59,760, 9-O-pyrrole-2-carbonyl ester of nodusmicin, reference compound], with 62.5 µg/mL (≈ 121 µM).

The same assay, now with this note: read-out: MIC S.pyrogenes UC-152.
Regarding `COC1CC2C=CC3C4OC2(C(C)=CC(C)C(C(C)O)OC1=O)C3C(OC(=O)c1ccco1)C(C)C4O` (stereo not shown) [U-60,905, 11-O--Furoyl-], the minimum inhibitory concentration (MIC) was over 500 µg/mL.
On the same count and under the same terms, then `COC1CC2C=CC3C4OC2(C(C)=CC(C)C(C(C)O)OC1=O)C3C(O)C(C)C4OC(=O)c1cccnc1` (stereo not shown) [U-60,906, 9-O--Nicotinoyl-], with 2500 µg/mL (≈ 4740 µM).
The same measure, in the same setting: then `COC1CC2C=CC3C4OC2(C(C)=CC(C)C(C(C)O)OC1=O)C3C(O)C(C)C4OC(=O)c1ccccn1` (stereo not shown) [U-60,909, 9-O--Picolinoyl-], with over 250 µg/mL.

The assay is the same for the next values; noted with them: read-out: MIC S.pyrogenes UC-152, BHI broth.
As to `COC1CC2C=CC3C4OC2(C(C)=CC(C)C(C(C)O)OC1=O)C3C(O)C(C)C4OC(=O)c1ccc[nH]1` (stereo not shown) [U-59,760, 9-O-pyrrole-2-carbonyl ester of nodusmicin, reference compound], the minimum inhibitory concentration (MIC) was over 125 µg/mL.

The record behind these values is patent US4363922A, “Esters of antibiotic nodusmicin” (priority 1981, dated 1982).
